{"source": "patent US7368423B1", "about": "“Composition and method for treating chronic allograft rejection” (priority 2001, dated 2008)", "key": {"[1]": {"system": "ACI to LEW rat cardiac transplant", "format": "in vivo", "conditions": "given with CSA", "text": "An ACI-LEW rat cardiac transplant model was used to test the ability of 2-CDA to suppress allograft chronic rejection.\nAnimals were sacrificed at 90 days post transplant. Heart grafts were subjected to evaluation which included the quantification of the extent to which the following pathologies typically associated with chronic allograft rejection were present in the allograft models: myocardial Infiltration (MI), myocardial fibrosis (MF), and intimal proliferation (IP).\nEach of these pathologies is associated with the vascular disease of transplant arteriosclerosis."}, "[2]": {"system": "allogeneic small bowel transplantation", "conditions": "rats sacrificed ten days after small bowel transplantation; cited from earlier work"}, "[3]": {"system": "heart allografts", "conditions": "cited from earlier work"}}, "data": [{"smiles": "Nc1nc(Cl)nc2c1ncn2[C@H]1C[C@H](O)[C@@H](CO)O1", "note": "[2-CDA, 2-chlorodeoxyadenosine]", "values": [{"measurement": "most effective dose of 2-CDA", "setting": "[1]", "result": "1 mg per kilogram of recipient body mass per week"}, {"measurement": "graft rejection (histology)", "setting": "[2]", "result": "moderate to severe rejection"}, {"measurement": "effect on allograft rejection", "setting": "[3]; 2-CDA alone", "result": "no effect"}, {"measurement": "rejection of heart allografts (histology)", "setting": "[3]; rats, 10 days post transplant", "result": "severe rejection"}]}]}
